Data published in ChEMBL document CHEMBL1156268, “Michael acceptor based antiplasmodial and antitrypanosomal cysteine protease inhibitors with unusual amino acids” (J Med Chem, 2010).
One block for each compound: values may come before it. Calls of active or inactive are those of the source. No cut-off for these calls is given here.

Legend:
[1] = Inhibition of Plasmodium falciparum recombinant falcipain-2 using Cbz-Leu-Arg-AMC as substrate by standard fluorescence assay
[2] = Inhibition of Plasmodium falciparum recombinant falcipain-3 by standard fluorescence assay
[3] = target: T1, Rhodesain (Trypanosoma brucei rhodesiense, UniProt Q95PM0); assay: (§1) Inhibition of Trypanosoma brucei rhodesiense recombinant rhodesain by standard fluorescence assay
T1 sequence (Q95PM0 whole entry): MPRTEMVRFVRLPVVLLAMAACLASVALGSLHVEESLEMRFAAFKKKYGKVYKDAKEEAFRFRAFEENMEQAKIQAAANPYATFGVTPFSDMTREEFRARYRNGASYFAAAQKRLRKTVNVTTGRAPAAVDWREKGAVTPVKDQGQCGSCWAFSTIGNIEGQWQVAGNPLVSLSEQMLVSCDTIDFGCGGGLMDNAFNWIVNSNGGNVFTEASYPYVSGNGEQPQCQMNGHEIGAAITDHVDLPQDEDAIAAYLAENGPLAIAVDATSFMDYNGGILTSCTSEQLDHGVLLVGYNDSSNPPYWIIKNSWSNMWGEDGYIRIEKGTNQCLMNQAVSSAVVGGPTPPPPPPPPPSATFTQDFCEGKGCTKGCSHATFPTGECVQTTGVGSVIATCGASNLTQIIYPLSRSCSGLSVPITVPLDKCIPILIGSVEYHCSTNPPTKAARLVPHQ

[4] = system: Plasmodium falciparum; assay: Antiplasmodial activity against Plasmodium falciparum W2 by flow cytometry; format: functional, organism-based
[5] = system: Trypanosoma brucei brucei; assay: Antitrypanosomal activity against Trypanosoma brucei brucei; format: functional, organism-based
[6] = system: Plasmodium falciparum; assay: Antiplasmodial activity against Plasmodium falciparum FCBR by flow cytometry; format: functional, organism-based; settings: FCBR/Columbia
[7] = Cytotoxicity against mouse J774.1 cells; format: cell-based
[8] = Selectivity index, ratio of IC50 for mouse J774.1 cells to IC50 for Trypanosoma brucei brucei; format: toxicity; settings: J774.1 cells versus Trypanosoma brucei brucei, read-out: Ratio IC50
[9] = target: Rhodesain (Trypanosoma brucei rhodesiense) (UniProt Q95PM0); assay: Inhibition of Trypanosoma brucei rhodesiense recombinant rhodesain at 100 uM by standard fluorescence assay
Rhodesain (Trypanosoma brucei rhodesiense), sequence (Q95PM0 1-450): as the sequence (Q95PM0 whole entry) above

[10] = target: Rhodesain (Trypanosoma brucei rhodesiense) (UniProt Q95PM0); assay: as §1; settings: TDE = time-dependent effect
[11] = system: Plasmodium falciparum; assay: Antiplasmodial activity against Plasmodium falciparum W2 at 100 uM by flow cytometry; format: functional
[12] = Inhibition of Plasmodium falciparum recombinant falcipain-2 using Cbz-Phe-Arg-AMC as substrate by standard fluorescence assay
[13] = system: Plasmodium falciparum; assay: Inhibition of Plasmodium falciparum recombinant falcipain-3 at 100 uM by standard fluorescence assay
[14] = system: Plasmodium falciparum; assay: Inhibition of Plasmodium falciparum recombinant falcipain-2 at 100 uM by standard fluorescence assay
[15] = system: Plasmodium falciparum; assay: Antiplasmodial activity against Plasmodium falciparum W2 at 10 uM by flow cytometry; format: functional
[16] = target: T1, Rhodesain; assay: Inhibition of Trypanosoma brucei rhodesiense recombinant rhodesain by standard fluorescence assay in presence of DTT
[17] = target: T1, Rhodesain; assay: Inhibition of Trypanosoma brucei rhodesiense recombinant rhodesain using high concentration of enzyme by standard fluorescence assay
[18] = target: T1, Rhodesain; assay: Inhibition of Trypanosoma brucei rhodesiense recombinant rhodesain using high concentration of enzyme by standard fluorescence assay in presence of detergent
[19] = target: T1, Rhodesain; assay: Inhibition of Trypanosoma brucei rhodesiense recombinant rhodesain using low concentration of enzyme by standard fluorescence assay
[20] = target: T1, Rhodesain; assay: Inhibition of Trypanosoma brucei rhodesiense recombinant rhodesain using low concentration of enzyme by standard fluorescence assay in presence of detergent
[21] = system: Trypanosoma brucei brucei; assay: Antitrypanosomal activity against Trypanosoma brucei brucei at 100 uM; format: functional, organism-based

SMILES: CCOC(=O)/C=C/C(=O)N[C@@H](CCC(=O)NC(c1ccccc1)(c1ccccc1)c1ccccc1)C(=O)OC
Ki [1]: 3.3 µM
Ki [2]: 14.7 µM
Ki [3]: 1.4 µM
IC50 [4]: 4.7 µM
IC50 [5]: 31 µM

Ki [1]: 0.025 µM
Ki [2]: 0.22 µM
IC50 [6]: 3.2 µM
SMILES: CC(C)C[C@H](NC(=O)[C@H]1O[C@@H]1C(=O)O)C(=O)NCCCCN=C(N)N [E-64]

SMILES: C[C@H](NC(=O)[C@H](Cc1ccccc1)NC(=O)/C=C\C(=O)N[C@@H](Cc1ccccc1)C(=O)OCc1ccccc1)C(=O)O
Ki [1]: 3.8 µM
Ki [2]: 42.2 µM
Ki [3]: 1.4 µM
IC50 [4]: 8 µM
IC50 [5]: 2.2 µM
IC50 [7]: 32 µM
selectivity ratio [8]: 10

Ki [1]: 6.6 µM
Ki [2]: 36.8 µM
IC50 [4]: 28.4 µM
IC50 [5]: 14.9 µM
inhibition [9]: 29%
SMILES: CCOC(=O)/C=C\C(=O)N[C@@H](Cc1ccccc1)C(=O)N[C@@H](C)C(=O)N[C@@H](CC(C)C)C(=O)OCc1ccccc1
IC50 [7]: 29 µM

SMILES: CCOC(=O)/C=C/[C@@H](CCC(=O)NC(c1ccccc1)(c1ccccc1)c1ccccc1)NC(=O)[C@@H](NC(=O)OC(C)(C)C)c1ccccc1
Ki [1]: 0.49 µM
Time-dependent inhibition (qualitative) [10]: tde
Ki [3]: 0.14 µM
IC50 [6]: 0.9 µM
IC50 [5]: 3.5 µM
IC50 [7]: 60 µM
selectivity ratio [8]: 17

SMILES: CCOC(=O)/C=C/C(=O)N[C@@H](Cc1ccccc1)C(=O)OCc1ccccc1
Ki [1]: 4.7 µM
Ki [2]: 65.9 µM
Ki [3]: 7.6 µM
IC50 [5]: 0.25 µM
inhibition [11]: inactive
IC50 [7]: 3.5 µM
selectivity ratio [8]: 10

SMILES: CCOC(=O)/C=C/CN[C@@H](CCC(N)=O)C(=O)N[C@H](C(=O)N[C@H](C(=O)N[C@@H](C)C(=O)OCc1ccccc1)C(C)C)C1CCCCC1
Ki [1]: 6.7 µM
Ki [2]: 28.4 µM
Ki [3]: 5.8 µM
IC50 [4]: 35.8 µM
Ki [12]: 5.4 µM

SMILES: O=C(/C=C\C(=O)N[C@@H](Cc1ccccc1)C(=O)OCc1ccccc1)N[C@@H](Cc1ccccc1)C(=O)O
Ki [1]: 10.2 µM
Ki [3]: 0.15 µM
IC50 [4]: 100 µM
IC50 [5]: 2.9 µM
inhibition [13]: inactive
IC50 [7]: 31 µM
selectivity ratio [8]: 10

IC50 [5]: 25.5 µM
inhibition [14]: inactive
inhibition [9]: inactive
SMILES: CCOC(=O)/C=C\C(=O)N[C@@H](CCC(=O)NC(c1ccccc1)(c1ccccc1)c1ccccc1)C(=O)OC
inhibition at 10 µM [15]: 30%

SMILES: CCOC(=O)/C=C/[C@H](CCC(=O)NC(c1ccccc1)(c1ccccc1)c1ccccc1)NC(=O)OC(C)(C)C
Ki [1]: 1.8 µM
Ki [2]: 8.2 µM
Time-dependent inhibition (qualitative) [10]: tde
Ki [3]: 4.3 µM
IC50 [4]: 4 µM
IC50 [5]: 2.8 µM
Ki [16]: 3.6 µM
IC50 [7]: > 100 µM
selectivity ratio [8]: > 36

SMILES: CCOC(=O)/C=C/[C@H](CCC(=O)NC(c1ccccc1)(c1ccccc1)c1ccccc1)NC(=O)[C@@H](NC(=O)OC(C)(C)C)c1ccccc1
Ki [1]: 0.45 µM
Ki [2]: 1.4 µM
Time-dependent inhibition (qualitative) [10]: tde
Ki [3]: 0.47 µM
IC50 [4]: 3.9 µM
IC50 [5]: 31 µM
Ki [17]: 0.64 µM
Ki [18]: 0.4 µM
Ki [19]: 0.64 µM
Ki [20]: 0.3 µM

IC50 [6]: 21.7 µM
IC50 [5]: 33.2 µM
inhibition [14]: 45%
inhibition [9]: 51%
SMILES: CCOC(=O)/C=C/C(=O)O.CCOC(=O)/C=C/C(=O)OC[C@H](CC(N)=O)NC(=O)[C@@H](NC(=O)OC(C)(C)C)c1ccccc1

SMILES: O=C(/C=C/C(=O)N[C@@H](Cc1ccccc1)C(=O)OCc1ccccc1)N[C@@H](Cc1ccccc1)C(=O)OCc1ccccc1
Ki [1]: 0.98 µM
Ki [2]: 2.8 µM
Time-dependent inhibition (qualitative) [10]: tde
Ki [3]: 0.34 µM
inhibition [11]: inactive
inhibition [21]: inactive
